{
  "source": "PubChem BioAssay AID1259409",
  "about": "(Chemical Carcinogenesis Research Information System (CCRIS), 2018)",
  "origin": "cited, not measured here",
  "tested_on": "rodent chemically induced tumor inhibition, incidence and multiplicity",
  "assay": "CCRIS tumor inhibitor studies",
  "data": [
    {"molecule": "O=NO", "values": [
      {"measurement": "tumour outcome (control, treated, inhibition, significance)", "setting": "Carcinogen: 2-AMINO-1-METHYL-6-PHENYL-1H-IMIDAZO[4,5-B]PYRID INE, 105650-23-5, Dose [Inhibitor]: 0, 0.2% IN DRINKING WATER FOR 4 WK BEGINNING AT 6 WK OF AGE (STUDY DURATION: 48 WK), Route [Inhibitor]: ORAL, Species: RAT, Strain/Sex: SPRAGUE-DAWLEY/FEMALE, Target Tissue: Type of Lesion: MAMMARY GLAND: ADENOCARCINOMA, Dose [Carcinogen]: 100 MG/KG BW 2/WK FOR 4 WK CONCURRENT WITH INHIBITOR, Promoter: NONE USED", "value": "11/20 (55%), 6/10 (60%), -9%, not significant"},
      {"measurement": "tumour outcome (control, treated, inhibition, significance)", "setting": "Carcinogen: 2-AMINO-1-METHYL-6-PHENYL-1H-IMIDAZO[4,5-B]PYRID INE, 105650-23-5, Dose [Inhibitor]: 0, 0.2% IN DRINKING WATER FOR 4 WK BEGINNING AT 6 WK OF AGE (STUDY DURATION: 48 WK), Route [Inhibitor]: ORAL, Species: RAT, Strain/Sex: SPRAGUE-DAWLEY/FEMALE, Target Tissue: Type of Lesion: MAMMARY GLAND: FIBROADENOMA, Dose [Carcinogen]: 100 MG/KG BW 2/WK FOR 4 WK CONCURRENT WITH INHIBITOR, Promoter: NONE USED", "value": "3/20 (15%), 2/10 (20%), -33%, not significant"},
      {"measurement": "outcome", "setting": "Carcinogen: 2-Amino-1-methyl-6-phenylimidazo[4,5-b]pyridine (105650-23-5), Dose [Inhibitor]: 0.2% in drinking water for 4 wk (Study duration 48 wk), Route [Inhibitor]: Oral, Species: Rat, Strain/Sex: Sprague Dawley/Female, Target Tissue: Type of Lesion: Mammary gland: Carcinoma, Dose [Carcinogen]: 100 mg/kg twice a wk for 4 wk (Test material solvent: corn oil), Promoter: None used", "value": "11/20 (55%), 6/10 (60%), not significant"},
      {"measurement": "outcome", "setting": "Carcinogen: 2-Amino-1-methyl-6-phenylimidazo[4,5-b]pyridine (105650-23-5), Dose [Inhibitor]: 0.2% in drinking water for 4 wk (Study duration 48 wk), Route [Inhibitor]: Oral, Species: Rat, Strain/Sex: Sprague Dawley/Female, Target Tissue: Type of Lesion: Mammary gland: Fibroadenoma, Dose [Carcinogen]: 100 mg/kg twice a wk for 4 wk (Test material solvent: corn oil), Promoter: None used", "value": "3/20 (15%), 2/10 (20%), not significant"}
    ]},
    {"molecule": "COc1ccc(CCN(C)CCCC(C#N)(c2ccc(OC)c(OC)c2)C(C)C)cc1OC", "note": "(centres undefined)", "values": [
      {"measurement": "tumour outcome (control, treated, inhibition, significance)", "setting": "Carcinogen: 7,12-DIMETHYLBENZ[A]ANTHRACENE, 57-97-6, Dose [Inhibitor]: 0, 3.5 MG/KG/D IN DRINKING WATER (STUDY DURATION: 20 WK), Route [Inhibitor]: ORAL, Species: RAT, Strain/Sex: SPRAGUE-DAWLEY/FEMALE, Target Tissue: Type of Lesion: MAMMARY GLAND: TUMOR, Dose [Carcinogen]: 50 MG/KG ONCE, Promoter: NONE USED", "value": "9/20 (45%), 3/20(15%), 67%, p< 0.05"},
      {"measurement": "tumour outcome (control, treated, inhibition, significance)", "setting": "Carcinogen: 7,12-DIMETHYLBENZ[A]ANTHRACENE, 57-97-6, Dose [Inhibitor]: 0, 2 UMOL 1/WK FOR 21 WK APPLIED 1 HR POST EACH PROMOTER DOSE (STUDY DURATION: 21 WK), Route [Inhibitor]: DERMAL, Species: MOUSE, Strain/Sex: SENCAR/FEMALE, Target Tissue: Type of Lesion: SKIN: PAPILLOMA, Dose [Carcinogen]: 25 NMOL ONCE, Promoter: CHRYSAROBIN, 491-58-7", "value": "90%, 82%, 9%, not significant"},
      {"measurement": "tumour outcome (control, treated, inhibition, significance)", "setting": "Carcinogen: N-NITROSOMORPHOLINE, 59-89-2, Dose [Inhibitor]: 0, 20 MG/KG BW IN 0.9% SALINE 1/2 D FOR DURATION OF STUDY (STUDY DURATION: 16 WK), Route [Inhibitor]: INTRAPERITONEAL, Species: RAT, Strain/Sex: SPRAGUE-DAWLEY/MALE, Target Tissue: Type of Lesion: LIVER: HEPATOCELLULAR CARCINOMA, Dose [Carcinogen]: 175 MG/L IN DRINKING WATER FOR 8 WK, Promoter: NONE USED", "value": "10/20 (50%), 3/20 (15%), 70%, p<0.05"}
    ]},
    {"molecule": "NC(=O)c1cccc(N)c1", "values": [
      {"measurement": "outcome", "setting": "Carcinogen: N-NITROSOBIS(2-HYDROXYPROPYL)AMINE, 53609-64-6, Dose [Inhibitor]: 0, 300 MG/KG 30 MIN AFTER EACH CARCINOGEN DOSE (STUDY DURATION: 35 WK), Route [Inhibitor]: INTRAPERITONEAL, Species: HAMSTER, Strain/Sex: SYRIAN/MALE, Target Tissue: Type of Lesion: BILE DUCT: CHOLANGIOCARCINOMA, Dose [Carcinogen]: 500 MG/KG IN 0.9% SALINE 1/WK FOR 5 WK, Promoter: NONE USED", "value": "0%, 7%"},
      {"measurement": "outcome", "setting": "Carcinogen: N-NITROSOBIS(2-HYDROXYPROPYL)AMINE, 53609-64-6, Dose [Inhibitor]: 0, 300 MG/KG 30 MIN AFTER EACH CARCINOGEN DOSE (STUDY DURATION: 35 WK), Route [Inhibitor]: INTRAPERITONEAL, Species: HAMSTER, Strain/Sex: SYRIAN/MALE, Target Tissue: Type of Lesion: LIVER: HEPATOCELLULAR CARCINOMA, Dose [Carcinogen]: 500 MG/KG IN 0.9% SALINE 1/WK FOR 5 WK, Promoter: NONE USED", "value": "0%, 7%"},
      {"measurement": "tumour outcome (control, treated, inhibition, significance)", "setting": "Carcinogen: N-NITROSOBIS(2-HYDROXYPROPYL)AMINE, 53609-64-6, Dose [Inhibitor]: 0, 300 MG/KG 30 MIN AFTER EACH CARCINOGEN DOSE (STUDY DURATION: 35 WK), Route [Inhibitor]: INTRAPERITONEAL, Species: HAMSTER, Strain/Sex: SYRIAN/MALE, Target Tissue: Type of Lesion: LUNG: ADENOCARCINOMA, Dose [Carcinogen]: 500 MG/KG IN 0.9% SALINE 1/WK FOR 5 WK, Promoter: NONE USED", "value": "8%, 0%, 100%, not calculated"},
      {"measurement": "outcome", "setting": "Carcinogen: N-NITROSOBIS(2-HYDROXYPROPYL)AMINE, 53609-64-6, Dose [Inhibitor]: 0, 300 MG/KG 30 MIN AFTER EACH CARCINOGEN DOSE (STUDY DURATION: 35 WK), Route [Inhibitor]: INTRAPERITONEAL, Species: HAMSTER, Strain/Sex: SYRIAN/MALE, Target Tissue: Type of Lesion: LUNG: ADENOMA, Dose [Carcinogen]: 500 MG/KG IN 0.9% SALINE 1/WK FOR 5 WK, Promoter: NONE USED", "value": "0%, 7%"},
      {"measurement": "tumour outcome (control, treated, inhibition, significance)", "setting": "Carcinogen: N-NITROSOBIS(2-HYDROXYPROPYL)AMINE, 53609-64-6, Dose [Inhibitor]: 0, 300 MG/KG 30 MIN AFTER EACH CARCINOGEN DOSE (STUDY DURATION: 35 WK), Route [Inhibitor]: INTRAPERITONEAL, Species: HAMSTER, Strain/Sex: SYRIAN/MALE, Target Tissue: Type of Lesion: PANCREAS: CARCINOMA, Dose [Carcinogen]: 500 MG/KG IN 0.9% SALINE 1/WK FOR 5 WK, Promoter: NONE USED", "value": "39%, 40%, -3%, not calculated"},
      {"measurement": "outcome", "setting": "Carcinogen: N-NITROSOBIS(2-HYDROXYPROPYL)AMINE, 53609-64-6, Dose [Inhibitor]: 0, 600 MG/KG 30 MIN AFTER EACH CARCINOGEN DOSE (STUDY DURATION: 35 WK), Route [Inhibitor]: INTRAPERITONEAL, Species: HAMSTER, Strain/Sex: SYRIAN/MALE, Target Tissue: Type of Lesion: LIVER: HEPATOCELLULAR CARCINOMA, Dose [Carcinogen]: 500 MG/KG IN 0.9% SALINE 1/WK FOR 5 WK, Promoter: NONE USED", "value": "0%, 5%"},
      {"measurement": "tumour outcome (control, treated, inhibition, significance)", "setting": "Carcinogen: N-NITROSOBIS(2-HYDROXYPROPYL)AMINE, 53609-64-6, Dose [Inhibitor]: 0, 600 MG/KG 30 MIN AFTER EACH CARCINOGEN DOSE (STUDY DURATION: 35 WK), Route [Inhibitor]: INTRAPERITONEAL, Species: HAMSTER, Strain/Sex: SYRIAN/MALE, Target Tissue: Type of Lesion: LUNG: ADENOCARCINOMA, Dose [Carcinogen]: 500 MG/KG IN 0.9% SALINE 1/WK FOR 5 WK, Promoter: NONE USED", "value": "8%, 0%, 100%, not calculated"},
      {"measurement": "outcome", "setting": "Carcinogen: N-NITROSOBIS(2-HYDROXYPROPYL)AMINE, 53609-64-6, Dose [Inhibitor]: 0, 600 MG/KG 30 MIN AFTER EACH CARCINOGEN DOSE (STUDY DURATION: 35 WK), Route [Inhibitor]: INTRAPERITONEAL, Species: HAMSTER, Strain/Sex: SYRIAN/MALE, Target Tissue: Type of Lesion: LUNG: ADENOMA, Dose [Carcinogen]: 500 MG/KG IN 0.9% SALINE 1/WK FOR 5 WK, Promoter: NONE USED", "value": "0%, 5%"},
      {"measurement": "tumour outcome (control, treated, inhibition, significance)", "setting": "Carcinogen: N-NITROSOBIS(2-HYDROXYPROPYL)AMINE, 53609-64-6, Dose [Inhibitor]: 0, 600 MG/KG 30 MIN AFTER EACH CARCINOGEN DOSE (STUDY DURATION: 35 WK), Route [Inhibitor]: INTRAPERITONEAL, Species: HAMSTER, Strain/Sex: SYRIAN/MALE, Target Tissue: Type of Lesion: PANCREAS: CARCINOMA, Dose [Carcinogen]: 500 MG/KG IN 0.9% SALINE 1/WK FOR 5 WK, Promoter: NONE USED", "value": "39%, 25%, 36%, not calculated"}
    ]},
    {"molecule": "O=c1c(-c2ccc(O)cc2)coc2cc(O)ccc12", "values": [
      {"measurement": "tumour outcome (control, treated, inhibition, significance)", "setting": "Carcinogen: 7,12-DIMETHYLBENZ[A]ANTHRACENE (57-97-6), Dose [Inhibitor]: 105 MG/KG DIET FOR 17 WKS (STUDY DURATION: 17 WKS), Route [Inhibitor]: DIET, Species: RAT, Strain/Sex: SPRAGUE-DAWLEY/FEMALE (20,18)/(20,19), Target Tissue: Type of Lesion: MAMMARY, Dose [Carcinogen]: 12.5 MG ONCE 1 WK AFTER START OF DIET (STUDY DURATION: 17 WKS)", "value": "95%, 85%, 11%, p=0.366"},
      {"measurement": "tumour outcome (control, treated, inhibition, significance)", "setting": "Carcinogen: N-METHYL-N-NITROSOUREA, 684-93-5, Dose [Inhibitor]: 0, 1 MG/30 G BW 1/4 WK FOR 25 WK BEGINNING 5 WK POST CARCINOGEN TREATMENT (STUDY DURATION: 30 WK), Route [Inhibitor]: SUBCUTANEOUS, Species: MOUSE, Strain/Sex: ICR/FEMALE, Target Tissue: Type of Lesion: UTERUS (LEFT): ADENOCARCINOMA, Dose [Carcinogen]: 0.1 MG/KG BW INJECTED INTO LEFT UTERINE TUBE ONCE", "value": "3/26 (11%), 0/14 (0%), 100%, not significant"},
      {"measurement": "tumour outcome (control, treated, inhibition, significance)", "setting": "Carcinogen: N-METHYL-N-NITROSOUREA, 684-93-5, Dose [Inhibitor]: 0, 1 MG/30 G BW 1/4 WK FOR 25 WK BEGINNING 5 WK POST CARCINOGEN TREATMENT (STUDY DURATION: 30 WK), Route [Inhibitor]: SUBCUTANEOUS, Species: MOUSE, Strain/Sex: ICR/FEMALE, Target Tissue: Type of Lesion: UTERUS (LEFT): ADENOCARCINOMA, Dose [Carcinogen]: 0.1 MG/KG BW INJECTED INTO LEFT UTERINE TUBE ONCE, Promoter: 17-BETA-ESTRADIOL, 50-28-2", "value": "8/24 (33%), 1/23 (4%), 87%, p<0.05"}
    ]}
  ]
}
